In US20250214969A1, “PROTEIN DEGRADERS AND USES THEREOF” (Kymera Therapeutics, Inc., priority 2022, published 2025):

How the values were obtained:
[1] = target: T1, truncated His-MBP-Tev-KLHDC2 (residues 1-363) (Homo sapiens, UniProt Q9Y2U9); experiment: KLHDC2 HTRF binding assay; conditions: 1 nM KLHDC2 (residues 1-363), fluorescein-labeled diglycine peptide probe
T1 construct: truncated His -MBP-Tev-KLHDC2 (residues 1-363) purified from E. coli; made in house; host or cells: E. coli
T1 sequence (Q9Y2U9 1-363): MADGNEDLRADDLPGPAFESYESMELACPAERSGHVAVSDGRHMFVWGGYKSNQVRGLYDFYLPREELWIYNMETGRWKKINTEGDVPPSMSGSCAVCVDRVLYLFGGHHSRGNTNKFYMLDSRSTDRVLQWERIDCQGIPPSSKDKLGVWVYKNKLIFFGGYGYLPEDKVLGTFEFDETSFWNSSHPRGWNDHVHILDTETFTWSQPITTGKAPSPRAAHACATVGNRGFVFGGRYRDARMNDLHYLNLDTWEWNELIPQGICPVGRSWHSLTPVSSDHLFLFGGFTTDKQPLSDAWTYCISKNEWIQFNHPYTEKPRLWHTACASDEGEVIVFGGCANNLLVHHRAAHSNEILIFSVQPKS

[2] = target: T1, truncated His-MBP-Tev-KLHDC2 (residues 1-363); experiment: KLHDC2 FP competition binding assay; conditions: 15 nM KLHDC2 (residues 1-363), 10 nM fluorescein-labeled diglycine peptide probe, read-out: KLHDC2 binding Human FP: average external IC50

| IC50 [1] | IC50 [2] | SMILES |
| --- | --- | --- |
| 0.5 to 5 µM | > 5 µM | O=C(O)Cn1cc(NC(=O)CCCc2ccc(C3CC3)cc2)ccc1=O [I-239] |
| 0.5 to 5 µM | 0.5 to 5 µM | COc1cc(-c2cccs2)ccc1C(=O)Nc1ccc(=O)n(CC(=O)O)c1 [I-153] |
| > 5 µM | > 5 µM | Cc1ccc(C#N)c(-c2ccc(=O)n(CC(=O)O)c2)c1 [I-364] |
| 0.5 to 5 µM | 0.5 to 5 µM | O=C(O)Cn1cc(NC(=O)c2cccc(-c3cccnc3)c2)ccc1=O [I-281] |
| 0.5 to 5 µM | 0.5 to 5 µM | O=C(O)Cn1cc(NC(=O)c2ccc(-c3ccccc3)cc2F)ccc1=O [I-161] |
| 0.5 to 5 µM | > 5 µM | O=C(O)Cn1cc(NC(=O)[C@H]2CCCN(c3cccnc3)CC2)ccc1=O [I-28] |
| < 0.05 µM | > 5 µM | NCCCCCCCCCc1ccc2c(-c3cccc(C(=O)Nc4ccc(=O)n(CC(=O)O)c4)c3)cncc2c1 [I-107] |
| 0.5 to 5 µM | > 5 µM | O=C(O)Cn1cc(NC(=O)[C@@H]2CCCN(c3cccnc3)CC2)ccc1=O [I-29] |
| > 5 µM | > 5 µM | CCOC(=O)Cn1cc(NC(=O)c2cccc(-c3cccnc3)c2)ccc1=O [I-98] |
| 0.5 to 5 µM | > 5 µM | O=C(O)Cn1cc(NC(=O)c2nccc3c(Cl)cccc23)ccc1=O [I-248] |
| 0.5 to 5 µM | > 5 µM | COc1cc(-c2cccnc2)ccc1C(=O)Nc1ccc(=O)n(CC(=O)O)c1 [I-204] |
| < 0.05 µM | 0.05 to 0.5 µM | O=C(O)Cn1cc(NC(=O)[C@H]2CCCN(c3cccnc3)C2)ccc1=O [I-91] |
| > 5 µM | > 5 µM | CN(C)C(=O)Cc1ccc(=O)n(CC(=O)O)c1 [I-284] |
| > 5 µM | > 5 µM | O=C(O)Cn1cc(NC(=O)COc2cccnc2)ccc1=O [I-250] |
| > 5 µM | > 5 µM | O=C(O)C1CC(=O)N(C2CC2)C1 (stereo not shown) [I-216] |
| > 5 µM | > 5 µM | COc1ccc(-c2cc(C)ccc2C)cc1CC(=O)O [I-354] |
| > 5 µM | > 5 µM | COc1ccc(-c2ccccc2)cc1C(=O)Nc1ccc(=O)n(CC(=O)O)c1 [I-243] |
| 0.05 to 0.5 µM | 0.5 to 5 µM | O=C(O)Cn1cc(NC(=O)c2cc(-c3cccnc3)ccn2)ccc1=O [I-142] |
| 0.5 to 5 µM | > 5 µM | O=C(O)Cn1cc(Nc2ncc(-c3cccnc3)c3ccccc23)ccc1=O [I-56] |
| > 5 µM | > 5 µM | O=C(O)Cn1cc(C(=O)Nc2ccccc2)ccc1=O [I-374] |
| > 5 µM | > 5 µM | COc1ccc(C#N)cc1-c1ccc(=O)n(CC(=O)O)c1 [I-341] |
| > 5 µM | > 5 µM | Cc1ccc(C)c(-c2ccc(O)c(CC(=O)O)c2)c1 [I-338] |
| > 5 µM | > 5 µM | O=C(O)C1CC(=O)N(CCOc2ccccc2Cl)C1 (stereo not shown) [I-228] |
| > 5 µM | > 5 µM | O=C(O)Cn1cc(-c2ccccc2F)ccc1=O [I-395] |
| > 5 µM | > 5 µM | Cc1ccc(Cl)cc1-c1ccc(=O)n(CC(=O)O)c1 [I-401] |

| IC50 [1] | IC50 [2] | SMILES |
| --- | --- | --- |
| 0.05 to 0.5 µM | 0.5 to 5 µM | Cc1cc(=O)n(CC(=O)O)cc1NC(=O)[C@H]1CCCN(c2cccnc2)C1 [I-84] |
| > 5 µM | > 5 µM | Cc1ccc2nc(C(=O)Nc3ccc(=O)n(CC(=O)O)c3)ccc2c1 [I-187] |
| > 5 µM | > 5 µM | COc1cc(C)c(-c2ccc(=O)n(CC(=O)O)c2)cc1C [I-359] |
| > 5 µM | > 5 µM | Cc1cccc(-c2ccc(=O)n(CC(=O)O)c2)c1 [I-422] |
| > 5 µM | > 5 µM | Cc1nn(-c2ccc(F)cc2F)c(C)c1CC(=O)Nc1ccc(=O)n(CC(=O)O)c1 [I-246] |
| 0.5 to 5 µM | > 5 µM | CC(C)Cn1ccc2c(C(=O)Nc3ccc(=O)n(CC(=O)O)c3)ccnc21 [I-132] |
| 0.05 to 0.5 µM | 0.5 to 5 µM | O=C(O)Cn1cc(N2CCc3ccc(-c4cccnc4)cc3C2=O)ccc1=O [I-89] |
| > 5 µM | > 5 µM | O=C(O)Cn1cc(-c2cncc(OCc3ccccc3)c2)ccc1=O [I-301] |
| 0.5 to 5 µM | > 5 µM | O=C(O)Cn1cc(N2CC[C@@]3(CCN(c4cccnc4)C3)C2=O)ccc1=O [I-2] |
| 0.5 to 5 µM | > 5 µM | O=C(O)Cn1cc(N2CCc3cc(-c4cccnc4)ccc3C2=O)ccc1=O [I-68] |
| > 5 µM | > 5 µM | Nc1ccc(-c2ccc(=O)n(CC(=O)O)c2)cn1 [I-367] |
| > 5 µM | > 5 µM | O=C(O)Cn1cc(-c2ccccc2C(F)(F)F)ccc1=O [I-369] |
| 0.5 to 5 µM | > 5 µM | COc1c(C(=O)Nc2ccc(=O)n(CC(=O)O)c2)cccc1-c1ccccc1 [I-259] |
| > 5 µM | > 5 µM | O=C(O)Cn1cc(-c2ccc3cn[nH]c3c2)ccc1=O [I-386] |
| > 5 µM | > 5 µM | CS(=O)(=O)c1ccccc1-c1ccc(=O)n(CC(=O)O)c1 [I-394] |
| > 5 µM | > 5 µM | O=C(O)Cn1cc(NC(=O)c2cccc(-c3ccncc3)c2)ccc1=O [I-280] |
| > 5 µM | > 5 µM | COc1ccc(/C=C/CC(=O)Nc2ccc(=O)n(CC(=O)O)c2)cc1 [I-210] |
| > 5 µM | > 5 µM | O=C(O)Cn1cc(NC(=O)c2ccnc(-c3ccccc3)c2)ccc1=O [I-260] |
| > 5 µM | > 5 µM | CNC(=O)c1ccc(-c2cccc(C(=O)Nc3ccc(=O)n(CC(=O)O)c3)c2)cc1 [I-193] |
| > 5 µM | > 5 µM | COc1ccccc1OCC(=O)Nc1ccc(=O)n(CC(=O)O)c1 [I-273] |
| 0.05 to 0.5 µM | > 5 µM | NCCCCCCCCCc1cccc2c(-c3cccc(C(=O)Nc4ccc(=O)n(CC(=O)O)c4)c3)cncc12 [I-109] |
| < 0.05 µM | 0.05 to 0.5 µM | CNc1cncc(N2CCC[C@H](C(=O)Nc3ccc(=O)n(CC(=O)O)c3)C2)c1 [I-40] |
| 0.05 to 0.5 µM | 0.05 to 0.5 µM | COc1cncc(N2CCC[C@H](C(=O)Nc3ccc(F)c(CC(=O)O)c3)C2)c1 [I-24] |
| > 5 µM | > 5 µM | CC(NC(=O)CCC(=O)O)C(=O)c1ccccc1 (stereo not shown) [I-219] |
| 0.5 to 5 µM | > 5 µM | COc1cc(-c2ccc(C)cc2)ccc1C(=O)Nc1ccc(=O)n(CC(=O)O)c1 [I-135] |

| IC50 [1] | IC50 [2] | SMILES |
| --- | --- | --- |
| > 5 µM | > 5 µM | O=C(O)Cn1cc(N2CCC3(CCN(c4cccnc4)CC3)C2=O)ccc1=O [I-38] |
| 0.5 to 5 µM | 0.5 to 5 µM | CC(C)c1ccc(C(=O)Nc2ccc(=O)n(CC(=O)O)c2)cc1-c1cccnc1 [I-174] |
| > 5 µM | > 5 µM | O=C(O)C1CC(=O)N(Cc2ccc(Cl)cc2)C1 (stereo not shown) [I-221] |
| 0.5 to 5 µM | > 5 µM | O=C(O)Cn1cc(NC(=O)c2cccc(-c3cncs3)c2)ccc1=O [I-168] |
| 0.5 to 5 µM | > 5 µM | O=C(O)Cn1cc(NC(=O)c2cccc(-c3cccnc3)c2C(F)(F)F)ccc1=O [I-10] |
| > 5 µM | > 5 µM | O=C(O)Cn1cc(-c2ccc(C(=O)N3CCOCC3)cc2)ccc1=O [I-392] |
| 0.5 to 5 µM | > 5 µM | Cc1ccc(C(=O)Nc2ccc(=O)n(CC(=O)O)c2)cc1-c1ccccc1 [I-269] |
| > 5 µM | > 5 µM | O=C(O)Cn1cc(-c2cccs2)ccc1=O [I-424] |
| 0.05 to 0.5 µM | 0.5 to 5 µM | COc1cncc(N2CCC[C@H](C(=O)Nc3ccc(Cl)c(CC(=O)O)c3)C2)c1 [I-20] |
| > 5 µM | > 5 µM | NC(=O)Cn1cc(NC(=O)c2cccc(-c3cccnc3)c2)ccc1=O [I-123] |
| > 5 µM | > 5 µM | O=C(O)Cn1cc(NC(=O)COc2cccc(Cl)c2)ccc1=O [I-265] |
| > 5 µM | > 5 µM | O=C(O)Cn1cc(-c2ccccc2Cl)ccc1=O [I-379] |
| > 5 µM | > 5 µM | N#CCn1cc(NC(=O)c2cccc(-c3cccnc3)c2)ccc1=O [I-69] |
| > 5 µM | > 5 µM | O=C(O)Cn1cc(NC(=O)[C@H]2CCCN(c3cccnc3)C2)c(C(F)(F)F)cc1=O [I-67] |
| 0.5 to 5 µM | 0.5 to 5 µM | COc1cc(-c2nccs2)ccc1C(=O)Nc1ccc(=O)n(CC(=O)O)c1 [I-148] |
| > 5 µM | > 5 µM | O=C(O)Cn1cc(NC(=O)c2ccc(-c3ccccc3Cl)cc2)ccc1=O [I-197] |
| 0.05 to 0.5 µM | > 5 µM | NCCCCCCc1cccc2c(-c3cccc(C(=O)Nc4ccc(=O)n(CC(=O)O)c4)c3)cncc12 [I-110] |
| 0.05 to 0.5 µM | 0.5 to 5 µM | CCc1cncc(N2CCC[C@H](C(=O)Nc3ccc(Cl)c(CC(=O)O)c3)C2)c1 [I-21] |
| > 5 µM | > 5 µM | Cn1ccc(N2CC(C(=O)O)CC2=O)n1 (stereo not shown) [I-233] |
| > 5 µM | > 5 µM | O=C(O)Cn1cc(N2Cc3ccccc3C2=O)ccc1=O [I-307] |
| > 5 µM | > 5 µM | O=C(O)Cn1cc(N2CCc3cccc(-c4cccnc4)c3C2=O)ccc1=O [I-74] |
| > 5 µM | > 5 µM | CCc1ccc(C)c(-c2ccc(=O)n(CC(=O)O)c2)c1 [I-340] |
| > 5 µM | > 5 µM | Cc1ccc2c(c1C)NC(C(=O)O)C1CC=CC21 (stereo not shown) [I-426] |
| > 5 µM | > 5 µM | O=C(O)Cn1cc(NC(=O)c2ccccc2C(F)F)ccc1=O [I-321] |
